Experimental data taken from ChEMBL document CHEMBL1201862, “PubChem BioAssay data set” (2004).
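Values below derive from 48-hour exposures of cells grown in 96-well plates, with endpoints linearly interpolated between the two concentrations bracketing the appropriate inhibition level. Abbreviation: GI50, concentration required for 50% inhibition of growth.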 Active and inactive are the calls of the source. Rule as the data show it: active = GI50 up to about 1.1 µM and inactive = higher.

Legend:
Experiment in all cases: NCI tumour cell line growth inhibition, 48 h
SW-620 = tested on: SW-620
LOX IMVI = tested on: LOX IMVI
MDA-MB-231 = tested on: MDA-MB-231
RPMI-8226 = tested on: RPMI-8226
A549 = tested on: A549
M14 = tested on: M14
Hs-578T = tested on: Hs-578T
SF-539 = tested on: SF-539
U-251 = tested on: U-251
NCI-H23 = tested on: NCI-H23
SK-MEL-28 = tested on: SK-MEL-28
A498 = tested on: A498
K562 = tested on: K562
PC-3 = tested on: PC-3
BT-549 = tested on: BT-549
TK-10 = tested on: TK-10
IGROV-1 = tested on: IGROV-1
OVCAR-8 = tested on: OVCAR-8
MDA-N = tested on: MDA-N
SR = tested on: SR

| SMILES | GI50 (SW-620) | GI50 (LOX IMVI) | GI50 (MDA-MB-231) | GI50 (RPMI-8226) | GI50 (A549) | GI50 (M14) | GI50 (Hs-578T) | GI50 (SF-539) | GI50 (U-251) | GI50 (NCI-H23) | GI50 (SK-MEL-28) | GI50 (A498) | GI50 (K562) | GI50 (PC-3) | GI50 (BT-549) | GI50 (TK-10) | GI50 (IGROV-1) | GI50 (OVCAR-8) | GI50 (MDA-N) | GI50 (SR) |
| --- | --- | --- | --- | --- | --- | --- | --- | --- | --- | --- | --- | --- | --- | --- | --- | --- | --- | --- | --- | --- |
| CCSC1SC(c2ccccc2)(c2ccccc2)c2ccccc21 (centres undefined) | 54.8 µM (inactive) | 45.1 µM (inactive) | 73.1 µM (inactive) | 32.8 µM (inactive) | 46 µM (inactive) | 31.2 µM (inactive) | 54.3 µM (inactive) | > 100 µM (inactive) | 92.3 µM (inactive) | 47.9 µM (inactive) | 79.8 µM (inactive) | 22.5 µM (inactive) | 62.4 µM (inactive) | 39.4 µM (inactive) | 39.8 µM (inactive) | 67.3 µM (inactive) | 75.3 µM (inactive) | 64.7 µM (inactive) | 35.9 µM (inactive) |  |
| CSc1ncc2c(C#N)c3[nH]c4ccccc4n3c(=O)c2n1 | 23.6 µM (inactive) | 21.7 µM (inactive) | 26.6 µM (inactive) | 1.88 µM (inactive) |  | 16.7 µM (inactive) | 30.6 µM (inactive) | 17.3 µM (inactive) | 15.8 µM (inactive) | 14.8 µM (inactive) |  | 9.84 µM (inactive) | 5.18 µM (inactive) | 5.83 µM (inactive) | 20.6 µM (inactive) | 31.5 µM (inactive) | 18.1 µM (inactive) | 7.85 µM (inactive) | 24.3 µM (inactive) | 9.89 µM (inactive) |
| N#CCC1COc2ccccc2O1 (centres undefined) | > 10 µM (inactive) | > 10 µM (inactive) | > 10 µM (inactive) | > 10 µM (inactive) | > 10 µM (inactive) | > 10 µM (inactive) | > 10 µM (inactive) | > 10 µM (inactive) | > 10 µM (inactive) | > 10 µM (inactive) | > 10 µM (inactive) |  | > 10 µM (inactive) | > 10 µM (inactive) | > 10 µM (inactive) | > 10 µM (inactive) | > 10 µM (inactive) | > 10 µM (inactive) | > 10 µM (inactive) | > 10 µM (inactive) |
| COC(=O)C1(N2CCOCC2)CCC([C@@H](c2ccccc2)C(C)[N+](=O)[O-])C1 (some centres undefined) | 45.2 µM (inactive) | 39 µM (inactive) | > 100 µM (inactive) | 13 µM (inactive) | > 100 µM (inactive) | > 100 µM (inactive) | > 100 µM (inactive) | > 100 µM (inactive) | > 100 µM (inactive) | > 100 µM (inactive) | > 100 µM (inactive) | > 100 µM (inactive) | 51.6 µM (inactive) | > 100 µM (inactive) | 16.8 µM (inactive) | > 100 µM (inactive) |  | > 100 µM (inactive) | > 100 µM (inactive) | 20.8 µM (inactive) |
| COc1ccc(-c2nc3c(C(=O)NCCN(C)C)cccc3c3ccccc23)cc1 | 3.62 µM (inactive) | 1.5 µM (inactive) | 3.45 µM (inactive) |  | 3.1 µM (inactive) | 1.98 µM (inactive) | 5.3 µM (inactive) | 2.21 µM (inactive) | 2.86 µM (inactive) | 6.07 µM (inactive) | 1.97 µM (inactive) | 2.98 µM (inactive) | 2.06 µM (inactive) | 3.73 µM (inactive) | 10.5 µM (inactive) | 7.67 µM (inactive) | 3.47 µM (inactive) | 4.4 µM (inactive) | 2.26 µM (inactive) | 2.43 µM (inactive) |
| C1=C\SS/C=C\SS/1 | 33.1 µM (inactive) | 29 µM (inactive) | 6.53 µM (inactive) | 28.9 µM (inactive) | 48.1 µM (inactive) | 29.5 µM (inactive) | > 100 µM (inactive) |  | 34.8 µM (inactive) | 40.9 µM (inactive) | > 100 µM (inactive) | > 100 µM (inactive) | 26.1 µM (inactive) | 38.5 µM (inactive) | 97.1 µM (inactive) | 40.7 µM (inactive) | 16.6 µM (inactive) | 17.1 µM (inactive) | 40.3 µM (inactive) | > 100 µM (inactive) |
| CC(=O)O[C@H]1C(=O)[C@@]2(C)[C@H]([C@H](OC(=O)C3CCCCC3)[C@]3(O)C[C@H](OC(=O)[C@H](O)[C@@H](NC(=O)OC(C)(C)C)c4ccccc4)C(C)=C1C3(C)C)[C@]1(OC(C)=O)CO[C@@H]1C[C@@H]2O | 0.00634 µM (active) | 0.00817 µM (active) | 0.0427 µM (active) | 0.00457 µM (active) | 0.0194 µM (active) | 0.00724 µM (active) | 0.00548 µM (active) | 0.00298 µM (active) | 0.0137 µM (active) | 0.0261 µM (active) |  |  | 0.00275 µM (active) | 0.0168 µM (active) | 0.0134 µM (active) | 0.151 µM (active) | 0.00348 µM (active) | 0.0144 µM (active) | 0.00169 µM (active) | 0.00542 µM (active) |
| O=C1CC(CC(O)C(O)CO)CC(=O)N1 (centres undefined) | > 100 µM (inactive) | > 100 µM (inactive) | > 100 µM (inactive) | > 100 µM (inactive) | > 100 µM (inactive) | > 100 µM (inactive) | > 100 µM (inactive) | > 100 µM (inactive) | > 100 µM (inactive) | > 100 µM (inactive) | > 100 µM (inactive) | > 100 µM (inactive) | > 100 µM (inactive) | > 100 µM (inactive) | > 100 µM (inactive) | > 100 µM (inactive) | > 100 µM (inactive) | > 100 µM (inactive) | > 100 µM (inactive) |  |
| O=C(O)CCC1COc2ccccc2O1 (centres undefined) | > 10 µM (inactive) | > 10 µM (inactive) | > 10 µM (inactive) | > 10 µM (inactive) | > 10 µM (inactive) | > 10 µM (inactive) | > 10 µM (inactive) | > 10 µM (inactive) | > 10 µM (inactive) | > 10 µM (inactive) | > 10 µM (inactive) | > 10 µM (inactive) | > 10 µM (inactive) | > 10 µM (inactive) | > 10 µM (inactive) | > 10 µM (inactive) | > 10 µM (inactive) | > 10 µM (inactive) | > 10 µM (inactive) |  |
| COC(=O)c1sc(=S)sc1SCc1cccc(CSc2sc(=S)sc2C(=O)OC)c1 | > 100 µM (inactive) | > 100 µM (inactive) | 36.6 µM (inactive) | > 100 µM (inactive) |  | 71.3 µM (inactive) | 36.3 µM (inactive) | 24.6 µM (inactive) | 25.3 µM (inactive) | 27.9 µM (inactive) | > 100 µM (inactive) | 24.8 µM (inactive) | 79.8 µM (inactive) | > 100 µM (inactive) | 26.9 µM (inactive) | 29.4 µM (inactive) | 60.7 µM (inactive) | > 100 µM (inactive) | > 100 µM (inactive) | > 100 µM (inactive) |
| Cc1cc(S(=O)(=O)Nc2nnc3cnc4ccccc4n23)c(S)cc1Cl | > 100 µM (inactive) | > 100 µM (inactive) | > 100 µM (inactive) | > 100 µM (inactive) | > 100 µM (inactive) | > 100 µM (inactive) | 57.8 µM (inactive) | > 100 µM (inactive) | > 74.1 µM (inactive) | > 100 µM (inactive) |  | > 100 µM (inactive) | > 100 µM (inactive) | > 100 µM (inactive) | > 88.5 µM (inactive) | > 100 µM (inactive) | > 100 µM (inactive) | > 52.1 µM (inactive) | > 100 µM (inactive) | > 100 µM (inactive) |
| CN(CCNC(=O)c1nn(-c2ccccc2)c2c1Cc1ccccc1-2)CCNC(=O)c1nn(-c2ccccc2)c2c1Cc1ccccc1-2 | 1.48 µM (inactive) | 1.74 µM (inactive) | 1.82 µM (inactive) | 4.01 µM (inactive) | 2.06 µM (inactive) | 1.79 µM (inactive) | 1.87 µM (inactive) | 2.17 µM (inactive) | 1.71 µM (inactive) | 1.87 µM (inactive) | 1.69 µM (inactive) | 1.84 µM (inactive) | 2.11 µM (inactive) | 2.19 µM (inactive) | 4.06 µM (inactive) | 2.04 µM (inactive) | 1.67 µM (inactive) | 1.68 µM (inactive) | 1.73 µM (inactive) |  |
| CC(=O)c1[nH]c(NCc2ccccc2)c(C(=S)Nc2ccccc2)c1N | 32.1 µM (inactive) | 17.4 µM (inactive) | 15.1 µM (inactive) |  | 27 µM (inactive) | 18.9 µM (inactive) | 24 µM (inactive) | 1.88 µM (inactive) | 17.3 µM (inactive) | 38.8 µM (inactive) | 24.2 µM (inactive) | 17.9 µM (inactive) | 24.9 µM (inactive) | 39.6 µM (inactive) | 23.5 µM (inactive) | 27.5 µM (inactive) | 0.317 µM (active) | 18.6 µM (inactive) | 18.7 µM (inactive) | 28.7 µM (inactive) |
| O=C1NNC2NC(=O)C3(NN2C1=O)c1ccccc1-c1ccccc13 (centres undefined) | > 100 µM (inactive) | > 100 µM (inactive) | > 100 µM (inactive) |  | > 100 µM (inactive) | > 100 µM (inactive) | > 100 µM (inactive) | > 100 µM (inactive) | > 100 µM (inactive) | > 100 µM (inactive) | > 10 µM (inactive) | > 100 µM (inactive) | > 100 µM (inactive) | > 100 µM (inactive) | > 100 µM (inactive) | > 100 µM (inactive) | > 100 µM (inactive) | > 100 µM (inactive) | > 100 µM (inactive) | > 100 µM (inactive) |
